According to ChEMBL document CHEMBL4321842 (J Med Chem, 2019):

Columns and labels:
[1] = target: T1, Discoidin domain-containing receptor 2 (Homo sapiens, UniProt Q16832); test: Inhibition of DDR2 (unknown origin) expressed in human HEK293 cells incubated for 2 hrs followed by NanoBRET NanoGlo Substrate addition by NanoBRET assay; type: cell-based
T1 sequence (Q16832 whole entry): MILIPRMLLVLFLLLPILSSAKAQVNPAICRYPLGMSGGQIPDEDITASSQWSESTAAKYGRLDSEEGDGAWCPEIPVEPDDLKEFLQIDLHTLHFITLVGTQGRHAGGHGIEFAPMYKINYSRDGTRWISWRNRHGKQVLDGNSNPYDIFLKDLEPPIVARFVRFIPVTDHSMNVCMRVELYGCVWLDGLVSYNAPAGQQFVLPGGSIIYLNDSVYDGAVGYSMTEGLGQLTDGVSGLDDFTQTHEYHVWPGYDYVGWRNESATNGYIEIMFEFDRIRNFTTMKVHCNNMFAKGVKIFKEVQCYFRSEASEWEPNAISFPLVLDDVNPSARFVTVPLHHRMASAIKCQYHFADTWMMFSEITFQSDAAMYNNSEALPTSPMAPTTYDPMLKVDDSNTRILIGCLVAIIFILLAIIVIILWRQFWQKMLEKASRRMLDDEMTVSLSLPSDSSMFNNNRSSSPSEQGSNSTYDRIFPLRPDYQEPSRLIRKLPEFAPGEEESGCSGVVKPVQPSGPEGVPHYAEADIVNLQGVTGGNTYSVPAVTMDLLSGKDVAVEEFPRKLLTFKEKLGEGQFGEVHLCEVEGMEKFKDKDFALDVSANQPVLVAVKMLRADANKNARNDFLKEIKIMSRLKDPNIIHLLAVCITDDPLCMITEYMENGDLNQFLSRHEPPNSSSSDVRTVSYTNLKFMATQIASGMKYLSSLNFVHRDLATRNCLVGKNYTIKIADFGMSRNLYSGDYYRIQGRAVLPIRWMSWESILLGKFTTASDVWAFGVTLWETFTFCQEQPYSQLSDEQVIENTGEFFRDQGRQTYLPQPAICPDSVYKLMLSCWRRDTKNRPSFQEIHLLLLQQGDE

[2] = target: Mitogen-activated protein kinase 14 (Homo sapiens, UniProt Q16539); test: Inhibition of full-length human C-terminal NanoLuc-tagged P38 alpha MAPK expressed in human HEK293T cells incubated for 2 hrs followed by NanoBRET NanoGlo Substrate addition by NanoBRET assay; type: cell-based
[3] = target: Mitogen-activated protein kinase 11 (Homo sapiens, UniProt Q15759); test: Inhibition of p38-beta (unknown origin) expressed in human HEK293 cells incubated for 2 hrs followed by NanoBRET NanoGlo Substrate addition by NanoBRET assay; type: cell-based
[4] = target: Mast/stem cell growth factor receptor Kit (Homo sapiens, UniProt P10721); test: Inhibition of KIT (unknown origin) expressed in human HEK293 cells incubated for 2 hrs followed by NanoBRET NanoGlo Substrate addition by NanoBRET assay; type: cell-based
[5] = system: Blood; test: Inhibition of LPS-induced TNFalpha production in human whole blood preincubated for 15 mins followed by LPS stimulation and measured after 2.5 hrs by ELISA; type: functional, tissue-based
[6] = target: Ribosomal protein S6 kinase alpha-6 (Homo sapiens, UniProt Q9UK32); test: Inhibition of RSK4 kinase domain 1 (unknown origin) expressed in human HEK293 cells incubated for 2 hrs followed by NanoBRET NanoGlo Substrate addition by NanoBRET assay; type: cell-based
[7] = system: Blood; test: Inhibition of LPS-induced TNFalpha production in human whole blood at 10 uM preincubated for 15 mins followed by LPS stimulation and measured after 2.5 hrs by ELISA relative to control; type: functional
[8] = target: Epithelial discoidin domain-containing receptor 1 (Homo sapiens, UniProt Q08345); test: Inhibition of DDR1 (unknown origin) expressed in human HEK293 cells incubated for 2 hrs followed by NanoBRET NanoGlo Substrate addition by NanoBRET assay; type: cell-based
[9] = target: T2, Myosin light chain kinase family member 4 (Homo sapiens, UniProt Q86YV6); test: Inhibition of MYLK4 (unknown origin) expressed in human HEK293 cells incubated for 2 hrs followed by NanoBRET NanoGlo Substrate addition by NanoBRET assay; type: cell-based
T2 sequence (Q86YV6 whole entry): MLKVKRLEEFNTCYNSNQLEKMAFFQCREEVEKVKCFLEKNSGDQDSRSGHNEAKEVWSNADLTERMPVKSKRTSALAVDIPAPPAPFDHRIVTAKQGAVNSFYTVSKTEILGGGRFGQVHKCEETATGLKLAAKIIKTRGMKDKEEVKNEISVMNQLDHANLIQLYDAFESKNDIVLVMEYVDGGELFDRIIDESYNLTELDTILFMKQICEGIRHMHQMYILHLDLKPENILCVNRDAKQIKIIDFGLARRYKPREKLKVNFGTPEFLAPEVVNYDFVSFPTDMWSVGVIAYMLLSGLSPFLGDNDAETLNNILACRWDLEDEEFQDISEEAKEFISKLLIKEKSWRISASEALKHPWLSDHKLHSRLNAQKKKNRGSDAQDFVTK

Chain of Ribosomal protein S6 kinase alpha-6 (Q9UK32 whole entry, the tested form may be a part): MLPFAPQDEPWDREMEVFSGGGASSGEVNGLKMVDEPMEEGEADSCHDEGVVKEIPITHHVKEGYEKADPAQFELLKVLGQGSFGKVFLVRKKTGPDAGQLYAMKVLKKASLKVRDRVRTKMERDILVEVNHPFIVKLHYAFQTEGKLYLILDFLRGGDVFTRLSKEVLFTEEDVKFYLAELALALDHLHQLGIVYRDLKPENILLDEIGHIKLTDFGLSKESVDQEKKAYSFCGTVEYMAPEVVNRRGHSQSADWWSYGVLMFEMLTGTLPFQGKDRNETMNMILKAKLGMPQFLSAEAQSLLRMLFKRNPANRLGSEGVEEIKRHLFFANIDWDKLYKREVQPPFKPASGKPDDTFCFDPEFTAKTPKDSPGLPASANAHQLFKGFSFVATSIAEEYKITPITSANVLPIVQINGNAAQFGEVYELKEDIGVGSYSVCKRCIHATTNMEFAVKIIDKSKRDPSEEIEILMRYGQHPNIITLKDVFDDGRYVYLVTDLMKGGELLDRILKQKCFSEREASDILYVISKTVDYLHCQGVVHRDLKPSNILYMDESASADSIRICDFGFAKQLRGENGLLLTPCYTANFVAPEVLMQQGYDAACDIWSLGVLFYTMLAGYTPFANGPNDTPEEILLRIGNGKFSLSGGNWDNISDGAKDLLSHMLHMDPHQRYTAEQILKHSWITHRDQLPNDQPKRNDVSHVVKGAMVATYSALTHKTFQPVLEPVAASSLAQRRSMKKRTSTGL
Chain of Mitogen-activated protein kinase 14 (Q16539 whole entry): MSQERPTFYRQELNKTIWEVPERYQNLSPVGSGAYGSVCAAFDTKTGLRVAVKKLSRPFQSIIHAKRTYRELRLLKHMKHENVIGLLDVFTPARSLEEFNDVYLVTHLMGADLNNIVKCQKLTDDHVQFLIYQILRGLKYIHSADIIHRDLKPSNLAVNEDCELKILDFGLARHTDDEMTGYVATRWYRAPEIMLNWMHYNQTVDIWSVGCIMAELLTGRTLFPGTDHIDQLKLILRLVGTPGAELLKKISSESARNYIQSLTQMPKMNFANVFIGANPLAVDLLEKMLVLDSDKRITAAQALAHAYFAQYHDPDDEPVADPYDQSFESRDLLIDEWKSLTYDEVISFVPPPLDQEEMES
Chain of Epithelial discoidin domain-containing receptor 1 (Q08345 whole entry, the tested form may be a part): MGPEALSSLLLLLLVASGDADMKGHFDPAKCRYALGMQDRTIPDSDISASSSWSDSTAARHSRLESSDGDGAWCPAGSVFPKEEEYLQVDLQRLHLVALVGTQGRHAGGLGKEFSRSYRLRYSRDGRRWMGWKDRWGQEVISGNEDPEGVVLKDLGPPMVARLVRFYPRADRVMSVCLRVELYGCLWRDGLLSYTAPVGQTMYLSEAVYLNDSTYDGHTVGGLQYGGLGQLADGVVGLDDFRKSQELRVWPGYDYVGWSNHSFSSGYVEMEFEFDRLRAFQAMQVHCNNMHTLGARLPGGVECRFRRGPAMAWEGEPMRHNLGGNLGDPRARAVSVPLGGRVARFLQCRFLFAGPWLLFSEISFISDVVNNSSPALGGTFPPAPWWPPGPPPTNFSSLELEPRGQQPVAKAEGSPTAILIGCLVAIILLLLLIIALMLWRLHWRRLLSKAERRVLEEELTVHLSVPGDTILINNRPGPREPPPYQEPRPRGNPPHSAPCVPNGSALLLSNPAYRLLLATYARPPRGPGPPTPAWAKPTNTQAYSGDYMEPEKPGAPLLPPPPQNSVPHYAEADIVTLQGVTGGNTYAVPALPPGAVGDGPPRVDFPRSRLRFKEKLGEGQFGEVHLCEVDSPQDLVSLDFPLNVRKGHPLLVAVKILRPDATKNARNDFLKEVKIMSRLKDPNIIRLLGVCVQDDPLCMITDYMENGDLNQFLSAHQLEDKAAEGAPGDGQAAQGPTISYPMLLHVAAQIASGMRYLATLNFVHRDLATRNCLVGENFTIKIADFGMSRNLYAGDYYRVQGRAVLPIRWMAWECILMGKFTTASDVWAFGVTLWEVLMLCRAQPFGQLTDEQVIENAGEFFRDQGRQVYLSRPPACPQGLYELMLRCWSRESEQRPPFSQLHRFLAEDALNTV
Chain of Mast/stem cell growth factor receptor Kit (P10721 whole entry): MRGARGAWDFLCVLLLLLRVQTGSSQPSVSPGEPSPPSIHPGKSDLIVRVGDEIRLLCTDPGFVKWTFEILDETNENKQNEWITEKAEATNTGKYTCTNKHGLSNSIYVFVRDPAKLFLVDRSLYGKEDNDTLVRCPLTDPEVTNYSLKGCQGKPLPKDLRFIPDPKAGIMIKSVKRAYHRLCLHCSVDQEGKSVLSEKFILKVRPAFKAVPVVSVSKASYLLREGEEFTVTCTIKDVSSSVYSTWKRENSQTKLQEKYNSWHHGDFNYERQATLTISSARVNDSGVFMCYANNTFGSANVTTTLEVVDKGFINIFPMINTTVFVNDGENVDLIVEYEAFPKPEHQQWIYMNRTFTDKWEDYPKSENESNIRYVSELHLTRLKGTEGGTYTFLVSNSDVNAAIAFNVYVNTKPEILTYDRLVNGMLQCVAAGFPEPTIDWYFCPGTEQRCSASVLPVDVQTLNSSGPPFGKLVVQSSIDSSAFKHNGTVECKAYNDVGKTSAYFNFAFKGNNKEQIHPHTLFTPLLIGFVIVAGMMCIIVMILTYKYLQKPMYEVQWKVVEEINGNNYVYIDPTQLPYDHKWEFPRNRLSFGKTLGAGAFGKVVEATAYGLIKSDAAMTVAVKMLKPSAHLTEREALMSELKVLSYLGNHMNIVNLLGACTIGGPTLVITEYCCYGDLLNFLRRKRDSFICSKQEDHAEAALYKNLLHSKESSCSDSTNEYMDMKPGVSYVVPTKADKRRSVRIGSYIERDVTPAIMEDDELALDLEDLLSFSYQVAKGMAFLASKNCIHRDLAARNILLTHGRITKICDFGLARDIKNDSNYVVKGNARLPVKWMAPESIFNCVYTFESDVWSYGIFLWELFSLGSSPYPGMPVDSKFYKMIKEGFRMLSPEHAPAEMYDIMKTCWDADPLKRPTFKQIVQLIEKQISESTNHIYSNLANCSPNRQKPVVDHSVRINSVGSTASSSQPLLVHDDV
Chain of Mitogen-activated protein kinase 11 (Q15759 whole entry): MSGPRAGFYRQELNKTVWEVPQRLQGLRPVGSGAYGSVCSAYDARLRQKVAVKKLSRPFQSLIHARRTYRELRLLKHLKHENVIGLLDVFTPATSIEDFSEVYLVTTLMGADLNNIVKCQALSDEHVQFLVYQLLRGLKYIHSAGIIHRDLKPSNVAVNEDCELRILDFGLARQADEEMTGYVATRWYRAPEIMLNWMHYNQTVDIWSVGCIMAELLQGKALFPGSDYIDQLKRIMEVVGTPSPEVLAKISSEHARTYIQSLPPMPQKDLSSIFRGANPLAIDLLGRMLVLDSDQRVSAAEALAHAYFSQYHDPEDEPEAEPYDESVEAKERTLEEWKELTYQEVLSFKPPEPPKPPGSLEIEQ

IC50 [1]: 0.22 µM
IC50 [2]: 13 µM
IC50 [3]: 11 µM
IC50 [4]: > 20 µM
IC50 [5]: > 10 µM
IC50 [6]: > 20 µM
IC50 [8]: 13 µM
IC50 [9]: > 20 µM
SMILES: O=C(NCCCC1CCCCC1)c1ccc(CNC(=O)c2cnn(-c3ccccc3)c2C(F)(F)F)cc1 [SR-321]
inhibition at 10 µM [7]: 6.35%
